Assay results taken from patent publication US20260062408A1, “PRODRUGS OF S[…]” (SYNEX HOLDINGS BV, priority 2022, published 2026).

Key:
[1] = target: T1, 5-HT2A receptor (Mus musculus, UniProt P35363); conditions: 1 mg/kg i.p., 30 min, same assay conditions; data from Halberstadt et al. 2019; cited from earlier work
T1 construct: tissue Jackson Laboratories; host or cells: living male C57BL/6J mice (whole animal, brain)

[2] = Psychedelic effect in volunteers experienced with ALD-52; assay type: in vivo, humans; conditions: human volunteers; for Substitution for ALD-52 / Emax: administered as tartrate salt; for Emax: relative to ALD-52 = 1, read-out: Maximum psychedelic effect produced (ALD-52 = 1); for Duration: duration of effect relative to ALD-52
Procedure: Compounds of the invention were tested on volunteers who were experienced with the use of the related compound ALD-52. For each compound, a solution was prepared by dissolving the tartrate salt in deionized water to produce a concentration either of 1 mg/ml of the tartrate salt, or calculated to be equivalent to 1 mg/ml of the free base. This was either administered directly, or was prepared into standardised dosage units by pipetting 0.1 ml of solution onto a square of perforated blotter paper, which was placed overnight in a desiccator and allowed to evaporate to dryness.

[3] = Preventative treatment of chronic cluster headache attacks in volunteers, eight weeks; assay type: in vivo, humans; conditions: for average self-rated severity of cluster headache attacks: baseline 8.78/10; for average cluster headache attacks per day: baseline 3.44 attacks per day
Text: Eighteen volunteers were recruited through cluster headache support groups in the Netherlands. Age range of volunteers was between 23 to 67 (average 45.17), 14 males and 4 females. All volunteers had previous experience using psychedelic drugs such as LSD or psilocybin to alleviate cluster headache attacks, as well as prescribed medications including verapamil, prednisone, sumatriptan, topiramate and indomethacin. Volunteers were asked to discontinue use of prescribed medications for five days preceding the commencement of the study and for the eight-week duration.
Participants were supplied standardised 3.0 mg dosage units of SYN-L-017 as the tartrate salt (equivalent to 2.58 mg of SYN-L-017 freebase), measured into capsules for oral administration. These were tested as a preventative for chronic cluster headache attacks. One 3 mg capsule was administered intermittently in a pattern of one day on, two days off for a period of eight weeks (using the protocol described in Karst et al. (Karst M, et al. The non-hallucinogen 2-bromo-lysergic acid diethylamide as preventative treatment for cluster headache: An open, non-randomized case series. Cephalalgia 2010; 30(9):1140-1144. DOI: 10.1177/0333102410363490)) and the volunteers were asked to keep a diary to track the frequency and self-rated severity of cluster headache attacks on a scale of 1-10.

T1 sequence (P35363 whole entry): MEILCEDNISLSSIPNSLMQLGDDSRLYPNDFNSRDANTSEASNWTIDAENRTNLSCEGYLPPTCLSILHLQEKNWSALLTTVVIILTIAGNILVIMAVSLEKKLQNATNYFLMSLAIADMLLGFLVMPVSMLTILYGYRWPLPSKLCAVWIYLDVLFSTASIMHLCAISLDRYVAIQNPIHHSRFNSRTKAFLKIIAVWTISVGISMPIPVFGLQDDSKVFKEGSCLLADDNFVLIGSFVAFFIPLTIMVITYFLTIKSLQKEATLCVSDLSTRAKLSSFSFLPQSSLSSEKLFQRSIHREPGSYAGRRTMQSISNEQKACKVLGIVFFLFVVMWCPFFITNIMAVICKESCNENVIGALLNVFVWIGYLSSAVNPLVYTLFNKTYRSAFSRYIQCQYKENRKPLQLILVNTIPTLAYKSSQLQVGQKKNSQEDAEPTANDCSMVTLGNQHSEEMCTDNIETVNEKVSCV

SMILES	Substitution for ALD-52 [2]	Emax [2]	further results
CCN(CC)C(=O)[C@@H]1C=C2c3cccc4c3c(cn4C(C)=O)C[C@H]2N(C)C1 [ALD-52, 1-acetyl-d-lysergic acid diethylamide]	–	–	average HTR count [1]: 16.6
CCCCCCCC/C=C\CCCCCCCC(=O)n1cc2c3c(cccc31)C1=C[C@@H](C(=O)N(CC)CC)CN(C)[C@@H]1C2 [SYN-L-043, 1-oleoyl-lyserqic acid diethylamide]	Partial	25%	–
CCC(=O)n1cc2c3c(cccc31)C1=C[C@@H](C(=O)N(CC)C3CC3)CN(C)[C@@H]1C2 [SYN-L-197, 1-propionyl-lyserqic acid ethylcyclopropylamide]	Partial	50%	–
C=CCN1C[C@H](C(=O)N(C)C(C)C)C=C2c3cccc4c3c(cn4C(=O)CC)C[C@H]21 [SYN-L-073, 1-propionyl-6-allyl-6-nor-lysergic acid methylisopropylamide]	Partial	50%	–
C=C(C)CN1C[C@H](C(=O)N(CC)CC)C=C2c3cccc4c3c(cn4C(=O)CC)C[C@H]21 [SYN-L-203, 1-propionyl-6-methallyl-6-nor-lysergic acid diethylamide]	Partial	25%	–
CCCCCCCCCCCC(=O)n1cc2c3c(cccc31)C1=C[C@@H](C(=O)N(CC)CC)CN(C)[C@@H]1C2 [SYN-L-004, 1-dodecanoyl-lysergic acid diethylamide]	Partial	25%	Duration [2]: Slightly longer
CCN(CC)C(=O)[C@@H]1C=C2c3cccc4c3c(cn4C(=O)c3ccccc3C)C[C@H]2N(C)C1 [SYN-L-008, 1-(o-toluoyl)-lysergic acid diethylamide]	Partial	25%	–
CCC(=O)n1c(Br)c2c3c(cccc31)C1=C[C@@H](C(=O)N(CC)CC)CN(C)[C@@H]1C2 [SYN-L-017, 1-propionyl-2-bromo-lysergic acid diethylamide]	No substitution	0%	average self-rated severity of cluster headache attacks ([3]; after four weeks, 3 mg tartrate capsule oral, one day on, two days off): 4.46 /10; average cluster headache attacks per day ([3]; after four weeks): 2.13 attacks per day; side effects consistent with psychedelic effects ([3]; eight-week study): No side effects consistent with psychedelic effects were reported; volunteers reporting no side effects of any significance ([3]; eight-week study): 75%; volunteers reporting side effects including dizziness, nausea, fatigue, difficulty concentrating and insomnia ([3]; eight-week study): 25%; volunteers who thought the drug more effective than their normally used prescribed medication ([3]; eight-week study): 83.33%; perceived severity of side effects ([3]; eight-week study, none rated moderate or severe): mild; average cluster headache attacks per day ([3]; end of the eight weeks): 1.78 attacks per day; average self-rated severity of cluster headache attacks ([3]; end of the eight weeks): 3.72 /10; volunteers reporting improvement of cluster headache symptoms ([3]; overall, eight-week study): 91.67%
CC(=O)n1cc2c3c(cccc31)C1=C[C@@H](C(=O)N3CCOCC3)CN(C)[C@@H]1C2 [SYN-L-196, 1-acetyl-lysergic acid morpholide]	Partial	50%	–
CCN(CC)C(=O)[C@@H]1C=C2c3cccc4c3c(cn4S(=O)(=O)C3CC3)C[C@H]2N(C)C1 [SYN-L-014, 1-cyclopropanesulfonyl-lysergic acid diethylamide]	No substitution	0%	–
CCCCCCCCCCCCCCCCCC(=O)n1cc2c3c(cccc31)C1=C[C@@H](C(=O)N(CC)CC)CN(C)[C@@H]1C2 [SYN-L-042, 1-stearoyl-lyserqic acid diethylamide]	Partial	25%	–
CCN(CC)C(=O)[C@@H]1C=C2c3cccc4c3c(cn4C(=O)C(C)(C)C)C[C@H]2N(C)C1 [SYN-L-024, 1-pivaloyl-lysergic acid diethylamide]	Partial	25%	Duration [2]: Shorter duration
